Laboratory results taken from patent US20250197864A1, “LNCRNA TRANSCRIPTS IN MELANOMAGENESIS” (The Regents of the University of California, priority 2021, published 2025).

Tested on: gene expression in D04 melanoma cells
Assay: RNA-Seq differential expression analysis (DESeq2)
Assay type: cell-based, human
Settings: up-regulated list
Protocol: Total RNA was isolated using the RNeasy mini Kit (QIAGEN) following the manufacturer's protocol. Quality check for extracted RNA was done using 2100 Bioanalyzer (Agilent Technologies, USA) or Tapestation System (Agilent Technologies, USA). […] For samples used for identification of MAPK-responsive lncRNAs, paired-end, 101-bp sequencing was performed by Centrillion Genomic Services (Centrillion Biosciences, USA) on an Illumina HiSeq 2000. For DE gene analysis of ASO-transfected D04 samples, paired-end, 2×150-bp sequencing was performed by Genewiz (USA) on a Illumina HiSeq.
Sequence reads were aligned to the human genome (hg19) using TopHat (Version 2.0.11).
Differential expression (DE) analysis was done using DESeq2. Differentially expressed genes were defined by more than 1.5-fold changes (log 2 >0.58 or <−0.58) in expression with FDR<0.05. GO term analysis was done using DAVID Functional Annotation Clustering analysis.
To examine the biomolecular changes upon TRASH-inhibition in melanoma, D04 cells were treated with TRASH-ASOs (SEQ ID NO:15) and Control-ASOs and RNA was extracted and used for RNA-Seq. […] These GO terms consisted of genes encoding growth factors, tyrosine kinases, G protein coupled receptor subunits, and collagen subunits. Scatter plot diagram showing differential gene expression after TRASH-ASO treatment compared to Control-ASO treatment. (cut-off for significance was adjusted p-value <0.05). Data was obtained from RNA-Seq of D04 melanoma cells, treatment period was three days. (FIG. 5c)

With “GACTGGAGATAATTAA (gapmer, pattern not given here) [SEQ ID NO: 15, GapmeR ASO targeting AC004540.4 (TRASH), exon region of both isoforms; used for in vitro experiments]” the “log2FoldChange CSRNP1” value (ENSG00000144655) was 0.6637, the “log2FoldChange MYH15” value (ENSG00000144821) was 1.163 and the “log2FoldChange PHLDB2” value (ENSG00000144824) was 0.8277. The “log2FoldChange EAF2” value (ENSG00000145088) was 0.8471, the “log2FoldChange ECE2” value (ENSG00000145194) was 0.8019 and the “log2FoldChange DDIT4L” value (ENSG00000145358) was 0.9547. The “log2FoldChange GFOD1” value (ENSG00000145990) was 0.6187, the “log2FoldChange TRIM7” value (ENSG00000146054) was 0.7787 and the “log2FoldChange PM20D2” value (ENSG00000146281) was 0.6289. The “log2FoldChange EGFR” value (ENSG00000146648) was 0.8305, the “log2FoldChange GCNA” value (ENSG00000147174) was 0.8797 and the “log2FoldChange MAL2” value (ENSG00000147676) was 0.6498. For the same sequence, the “log2FoldChange RGS10” value (ENSG00000148908) was 0.5971, the “log2FoldChange ST14” value (ENSG00000149418) was 1.17 and the “log2FoldChange PDCD4” value (ENSG00000150593) was 0.586. The “log2FoldChange IL18” value (ENSG00000150782) was 0.6212, the “log2FoldChange NOCT” value (ENSG00000151014) was 0.6791 and the “log2FoldChange JMY” value (ENSG00000152409) was 0.9323. The “log2FoldChange NR4A2” value (ENSG00000153234) was 0.7664, the “log2FoldChange CCDC148” value (ENSG00000153237) was 0.745 and the “log2FoldChange FAM167A” value (ENSG00000154319) was 0.6771. The “log2FoldChange LY96” value (ENSG00000154589) was 0.6345, the “log2FoldChange HKDC1” value (ENSG00000156510) was 0.717 and the “log2FoldChange CD109” value (ENSG00000156535) was 0.6418. For the same sequence, the “log2FoldChange NRG1” value (ENSG00000157168) was 0.8358, the “log2FoldChange WDR66” value (ENSG00000158023) was 1.174 and the “log2FoldChange TPRG1L” value (ENSG00000158109) was 0.6032. The “log2FoldChange XDH” value (ENSG00000158125) was 0.6451, the “log2FoldChange GDPD5” value (ENSG00000158555) was 0.6005 and the “log2FoldChange LAD1” value (ENSG00000159166) was 1.038. For the same sequence, the “log2FoldChange STC1” value (ENSG00000159167) was 0.8653, the “log2FoldChange KLHL21” value (ENSG00000162413) was 0.8059 and the “log2FoldChange FBLIM1” value (ENSG00000162458) was 0.7967. For the same sequence, the “log2FoldChange ATF3” value (ENSG00000162772) was 0.6827, the “log2FoldChange COQ8A” value (ENSG00000163050) was 0.9489 and the “log2FoldChange CRYGC” value (ENSG00000163254) was 1.014. For the same sequence, the “log2FoldChange PAQR3” value (ENSG00000163291) was 0.7134, the “log2FoldChange KBTBD8” value (ENSG00000163376) was 1.017 and the “log2FoldChange IGFN1” value (ENSG00000163395) was 1.134. For the same sequence, the “log2FoldChange NKX6-1” value (ENSG00000163623) was 1.147, the “log2FoldChange PLB1” value (ENSG00000163803) was 0.8869 and the “log2FoldChange LZTFL1” value (ENSG00000163818) was 0.6384. The “log2FoldChange RAET1E” value (ENSG00000164520) was 1.147, the “log2FoldChange DAGLB” value (ENSG00000164535) was 0.608 and the “log2FoldChange GPR85” value (ENSG00000164604) was 0.7923. For the same sequence, the “log2FoldChange SUN3” value (ENSG00000164744) was 0.9518, the “log2FoldChange EN2” value (ENSG00000164778) was 1.028 and the “log2FoldChange FRAT1” value (ENSG00000165879) was 0.9146. The “log2FoldChange GPR176” value (ENSG00000166073) was 0.7841, the “log2FoldChange SVOP” value (ENSG00000166111) was 1.178 and the “log2FoldChange C16orf71” value (ENSG00000166246) was 0.7026. For the same sequence, the “log2FoldChange C16orf46” value (ENSG00000166455) was 0.9764, the “log2FoldChange GREM1” value (ENSG00000166923) was 1.047 and the “log2FoldChange CD3D” value (ENSG00000167286) was 0.767. The “log2FoldChange AXL” value (ENSG00000167601) was 0.7701, the “log2FoldChange DNAAF3” value (ENSG00000167646) was 0.6547 and the “log2FoldChange SERPINF2” value (ENSG00000167711) was 1.036. For the same sequence, the “log2FoldChange KRT80” value (ENSG00000167767) was 0.6697, the “log2FoldChange ABCA3” value (ENSG00000167972) was 0.8489 and the “log2FoldChange CAVIN2” value (ENSG00000168497) was 1.053. The “log2FoldChange IL12A” value (ENSG00000168811) was 0.635, the “log2FoldChange C8orf46” value (ENSG00000169085) was 0.7557 and the “log2FoldChange HSPB3” value (ENSG00000169271) was 0.6385. The “log2FoldChange ZNF280A” value (ENSG00000169548) was 0.9372, the “log2FoldChange MT1E” value (ENSG00000169715) was 0.8998 and the “log2FoldChange MZB1” value (ENSG00000170476) was 1.158. For the same sequence, the “log2FoldChange S1PR1” value (ENSG00000170989) was 0.6805, the “log2FoldChange XAGE3” value (ENSG00000171402) was 0.6996 and the “log2FoldChange ZNF57” value (ENSG00000171970) was 0.6499. The “log2FoldChange NIPAL4” value (ENSG00000172548) was 1.166, the “log2FoldChange MUC13” value (ENSG00000173702) was 1.042 and the “log2FoldChange GOLT1A” value (ENSG00000174567) was 0.9754. The “log2FoldChange C11orf68” value (ENSG00000175573) was 0.673, the “log2FoldChange TSPEAR” value (ENSG00000175894) was 0.9662 and the “log2FoldChange ENTHD1” value (ENSG00000176177) was 0.5983. For the same sequence, the “log2FoldChange ZNF843” value (ENSG00000176723) was 0.9407, the “log2FoldChange RIMKLA” value (ENSG00000177181) was 0.711 and the “log2FoldChange JUN” value (ENSG00000177606) was 0.715. For the same sequence, the “log2FoldChange ZNF619” value (ENSG00000177873) was 0.5884, the “log2FoldChange ZNF114” value (ENSG00000178150) was 0.8507 and the “log2FoldChange KCTD12” value (ENSG00000178695) was 0.7298. The “log2FoldChange FJX1” value (ENSG00000179431) was 0.6535, the “log2FoldChange PLD6” value (ENSG00000179598) was 0.696 and the “log2FoldChange WDR97” value (ENSG00000179698) was 0.7195. The “log2FoldChange B3GNT3” value (ENSG00000179913) was 0.7904, the “log2FoldChange ANKRD18A” value (ENSG00000180071) was 0.7649 and the “log2FoldChange OXTR” value (ENSG00000180914) was 1.093.
